Laboratory results: PubChem BioAssay AID652047 (Broad Institute, 2013)
Values joined by “and” are separate entries in the source; they are usually repeats but may differ in a detail not shown here. Equal entries are not always repeated. Active and inactive are the calls of the source.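 How the source made its calls: active means fitted curve reaches activity change of -35% signal drop at a concentration below twice the top valid tested dose; inactive means the rest, including activity in the opposite direction.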

System: not listed separately
Experiment: growth inhibition of P. falciparum 3D7, dose response, 3D7 strain, red blood cells, SYBR Green, cherry-picked (AID 652047);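 on activity change, negative = inhibition: 0% = untreated neutral control wells and -100% = mefloquine positive control wells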
Conditions: P. falciparum 3D7 in RBCs, SYBR Green DNA fluorescence; at 16 µM (top of the series)

Row | Structure (SMILES) | activity change, negative = inhibition
1 | CC1Oc2ccccc2C=C1/C=N/Nc1ccc(C(=O)O)cc1 (stereo not given) | 17% (inactive)
2 | O/N=C/c1cc(Br)ccc1OCc1ccccc1F | 13.1% (inactive)

Same assay, conditions: P. falciparum 3D7 in RBCs, SYBR Green DNA fluorescence; at 50 µM (top of the series)

Row | Structure (SMILES) | activity change, negative = inhibition
3 | CCCCc1ccc(-n2c(Cc3cccs3)n[nH]c2=S)cc1 | -28% (inactive)
4 | CCCCC(CC)c1nnc(NC(=O)c2cccs2)s1 (stereo not given) | -12.7% (inactive)
5 | COC(=O)COC(=O)c1ccccc1NC(=O)c1ccccc1 | -21% (inactive)
6 | COC(=O)C1=NN(C(=O)c2cccc(Br)c2)C(O)(c2ccc(Cl)cc2)C1 (stereo not given) | -78.6% (inactive)
7 | FC(F)(F)c1cccc(N2CCc3cn[nH]c32)c1 | -2.82% (inactive)
8 | CCn1c(CNc2ccc(Cl)cc2)nnc1SCc1ccc(Cl)cc1 | -49.2% (inactive)
9 | Cc1cc(Nc2ccccc2)nn1C(=O)c1ccccc1 | -5.49% (inactive)
10 | COc1ccccc1C1CCN(C(=O)c2ccc(Cl)cc2)CC1 | -15.2% (inactive)
11 | CC1CCN(c2ccc3c(c2)S(=O)(=O)c2ccccc2C3=O)CC1 | -3.18% (inactive)
12 | Oc1c(Br)cc(-c2ccccc2)cc1Br | -1.67% (inactive)
13 | CC1=NN(C(N)=S)C(=O)C1N=Nc1cccc(Cl)c1C (stereo not given) | -20.7% (inactive)
14 | COc1cccc(C(C)=C2SC(=S)NC2=O)c1 | -18.5% (inactive)
15 | COc1cccc(CC(=O)Nc2ccc3nc(C)sc3c2)c1 | -2.47% (inactive)

System: P. falciparum 3D7 in RBCs, SYBR Green DNA fluorescence
Experiment: as above
Conditions: not given

Row | Structure (SMILES) | AC35
16 | Nc1cc2c3ccccc3ccc2c2ccccc12 | 1.01 µM
17 | O=C(NC(=S)N(CCc1ccccc1)CCc1ccccc1)c1ccco1 | 12 µM
18 | CCc1ccc(CN(C)C(=O)c2cc(COc3cccc(C(F)(F)F)c3)on2)nc1 | 24.6 µM
19 | C=CCn1c(-c2cc(-c3ccc(C)cc3)nc3ccccc23)n[nH]c1=S | 15.5 µM
20 | COc1cnc(-c2ccccn2)nc1Sc1ccc(C)cc1 | 1.73 µM
21 | COc1cc(NS(=O)(=O)c2ccc(C)cc2)c2ncccc2c1 | 6.47 µM
22 | O=C1OCC(CO)(CO)N=C1NNc1ccc(Cl)c(Cl)c1 | 19.1 µM
23 | CC(C)=CCc1c(O)ccc(C(=O)Cc2ccccc2)c1O | 16.4 µM
24 | CCC(NC(=S)NCc1ccc(F)cc1)c1ccc(C(C)C)cc1 (stereo not given) | 11.8 µM
25 | Cc1ccc(NC(=S)c2nc3ccccc3[nH]2)c(C)c1 | 5.34 µM
26 | CCC(=O)NC(c1ccco1)c1cc(Cl)c2cccnc2c1O (stereo not given) | 0.484 µM
27 | Cc1[nH]n(-c2ccccc2)c(=O)c1/C=N/Nc1nncc(-c2ccccc2)n1 | 1.2 µM
28 | Cc1ccc(Nc2cc(C)nn2-c2nc(C)cc(C)n2)cc1 | 2.38 µM
29 | O=C1c2ccccc2-n2c1nc1ccccc1c2=O | 0.181 µM
30 | COC(=O)C1=C(C)NC(C)=C(C(=O)OCC(C)C)C1c1ccccc1[N+](=O)[O-] (stereo not given) | 4.78 µM
31 | Clc1ccc(C2=NCCN2)cc1 | 5.64 µM
32 | CCCCCCCCCCOC(=O)Cn1c(COc2ccccc2OC)[n+](C)c2ccccc21 | 0.401 µM
33 | O=c1c(O)c(-c2ccccc2)oc2ccccc12 | 31.1 µM
34 | CCOC(=O)c1ccc(NC(=S)N(Cc2cccnc2)Cc2ccco2)cc1 | 21.7 µM
35 | C=CCN(CC=C)C(=S)NC(=O)c1ccc(C)c(Br)c1 | 6.98 µM
36 | O=[N+]([O-])c1cccc(C=NNc2ccc3ccccc3n2)c1O | 4.23 µM
37 | COc1ccc2[nH]c(=O)c(CN(Cc3cccnc3)C(=O)Nc3ccccc3)cc2c1 | 17.5 µM
38 | OCCN(CCO)c1cc2c3ccccc3ccc2c2ccccc12 | 1.69 µM
39 | Cc1nc2ccc(C(C(F)(F)F)(C(F)(F)F)C(F)(F)F)cc2[nH]1 | 17.8 µM
40 | Cc1ccc(Cl)cc1NC1=C/C(=N\S(=O)(=O)c2cccs2)c2ccccc2C1=O | 0.0436 µM

Row | Structure (SMILES) | AC35
41 | C=C(C)COc1ccc(-c2[nH]ncc2-c2ccccc2)c(O)c1 | 2.91 µM
42 | Cc1ccc(O)c(C2=NNC(c3ccc(Cl)cc3)C2)c1 (stereo not given) | 4.31 µM
43 | Cc1nn(CCC#N)c(N)c1C1(O)C(=O)Nc2c(Cl)cc(Cl)cc21 (stereo not given) | 16 µM
44 | CCCCNC(=S)N/N=C1\CCCCc2ccccc21 | 18.3 µM
45 | O=[N+]([O-])c1ccc(Sc2cccc[n+]2[O-])c2nonc12 | 0.657 µM
46 | Cc1csc(NC(=O)C(C)Oc2ccc(Cl)cc2C)n1 (stereo not given) | 38.3 µM
47 | Cc1ccccc1Oc1nc(-c2ccccn2)nc2ccccc12 | 2.17 µM
48 | Cc1cc(C(=O)COC(=O)Cc2n[nH]c(=O)c3ccccc23)c(C)n1-c1cccc(C(F)(F)F)c1 | 6.57 µM
49 | COc1cc([N+](=O)[O-])cc(/C=N/NC(=O)c2cncc(Br)c2)c1O | 11.7 µM
50 | Clc1ccc(COC(Cn2ccnc2)c2ccc(Cl)cc2Cl)c(Cl)c1 (stereo not given) | 1.2 µM and 1.52 µM
51 | S=C(NCc1ccco1)Nc1ccc(Oc2ccc(Cl)cc2)cc1 | 24 µM
52 | COc1cccc(/C=N/Nc2ncnc3scc(-c4ccccc4)c23)c1O | 1.91 µM
53 | NC(=O)N=Nc1c2[nH]c3ccccc3nc-2c2ccccc12 | 10.7 µM
54 | COc1ccccc1-c1sc2cc3c(cc2c1C#Cc1cncn1C)OCO3 | 2.48 µM
55 | Cc1ccc(C)c(/C=C/C(=O)c2ccccc(=O)c2O)c1 | 7.91 µM
56 | Cc1ccc2oc(-c3ccccc3)c(C(=O)O)c(=O)c2c1 | 16.2 µM
57 | CC(C)(C)C(O)C(Cc1ccccc1Cl)n1cncn1 (stereo not given) | 25.7 µM
58 | CCc1ccc(OCc2n[nH]c(=S)n2Cc2ccccc2)cc1 | 32 µM
59 | O=C(CN1CC[n+]2c(-c3cccs3)csc21)c1ccc(-c2ccccc2)cc1 | 2.39 µM
60 | COc1ccc(Sc2nc(-c3ccccn3)ncc2OC)cc1 | 1.26 µM
61 | O=C(CSc1ccc(-c2ccccn2)nn1)c1ccccc1 | 20 µM
62 | CCCC(C)Sc1nc2c([nH]1)c(=S)n(C)c(=O)n2C (stereo not given) | 4.74 µM
63 | O=[N+]([O-])c1cc(C(F)(F)F)ccc1NCCc1c[nH]c2ccc(O)cc12 | 28.3 µM
64 | CC1CCN(c2nc(-c3ccncc3)nc3ccccc23)CC1 | 4.32 µM
65 | O=C(Nc1nnc(SCc2ccc(F)cc2)s1)c1ccccn1 | 2.17 µM

Row | Structure (SMILES) | AC35
66 | CC12CC3(C)CC(C)(C1)CC(NC(=O)N1CCCC1)(C2)C3 | 22.2 µM
67 | CCCCNc1c(-c2cccc(-c3ccc(OC)cc3)c2)nc2ccc(C)cn12 | 2 µM
68 | CCN(CC)C(=O)CSc1ncnc2sc(-c3ccccc3)cc12 | 35.6 µM
69 | C(=C1c2ccccc2-c2ccccc21)c1ccncc1 | 12.1 µM
70 | Clc1ccccc1C(c1ccccc1)(c1ccccc1)n1ccnc1 | 0.448 µM
71 | O=C(c1ccccc1)c1coc2c1C(=O)c1ccccc1C2=O | 3.82 µM
72 | COc1ccc(-c2oc3ccccc3c2C#Cc2cncn2C)cc1 | 0.603 µM
73 | CC(=O)Nc1cccc(NC(=O)CSc2ccc(-c3ccccn3)nn2)c1 | 14 µM
74 | Oc1c(CN2CCCC2)cc(COCc2ccccc2)c2cccnc12 | 13.8 µM
75 | CC(/C=N/n1c(COc2ccccc2)n[nH]c1=S)=C\c1ccccc1 | 37.3 µM
76 | CN1CCN(C(=O)c2cc(COc3ccc(F)cc3Cl)on2)CC1c1ccccc1 (stereo not given) | 38.8 µM
77 | Oc1ccc(/C=N/Nc2ccc(C(F)(F)F)cn2)c(O)c1 | 5.21 µM
78 | O=c1c2ccccc2c(-c2ccc(O)cc2)nn1-c1cccc(C(F)(F)F)c1 | 5.55 µM
79 | COC(=O)c1cccc2c1-c1ccccc1/C2=N/O | 34.7 µM
80 | COc1cc(/C=N/O)cc(Br)c1OCc1cccc(Cl)c1 | 29.6 µM
81 | O=c1cc(CSc2ccc(Cl)cc2)nc(-c2ccccn2)[nH]1 | 1.93 µM
82 | CC(=O)NC(c1ccc(C)cc1)c1cc([N+](=O)[O-])c2cccnc2c1O (stereo not given) | 10.1 µM
83 | C=CCNC(=S)N1CCC(Cc2ccccc2)CC1 | 43.5 µM
84 | Cc1ccc(O)c(-c2cc(-c3ccccc3C)[nH]n2)c1 | 10.8 µM
85 | O=P(Nc1cccnc1)(Oc1ccccc1Cl)Oc1ccccc1Cl | 40.7 µM
86 | CC(NC(=S)NC1CCC(C(C)(C)C)CC1)c1ccccc1 (stereo not given) | 10.2 µM
87 | O=C(O)c1ccccc1NC(c1ccccc1)c1ccc2cccnc2c1O (stereo not given) | 10.8 µM
88 | COc1ccc(O)c(C(=O)CC(=O)c2ccccc2C)c1 | 8.89 µM
89 | C=CCc1ccc(O)c(-c2ccc(O)c(CC=C)c2)c1 | 15.8 µM
90 | [O-][n+]1cccc2c(Br)cc(Br)c(O)c21 | 7.13 µM

Row | Structure (SMILES) | AC35
91 | CCCCNc1c(-c2cccc(Sc3ccc(OC)cc3)c2)nc2ccccn12 | 15.3 µM
92 | CCCCCCCn1c(=O)c(C(=O)OC)c(N)c2ccccc21 | 13.6 µM
93 | COc1cccc(/C=N/NC(=O)c2nc(-c3ccccc3)cc(-c3ccccc3)n2)c1O | 6.29 µM
94 | O=C(NCC1CC1(Cl)Cl)Nc1ccc(Cl)c(Cl)c1 (stereo not given) | 8.82 µM
95 | CC1=CC(C)(C)N(S(=O)(=O)c2ccc(C)cc2)c2ccc(C)cc21 | 22.3 µM
96 | Cc1ccc(S(=O)(=O)Nc2ccc(O)c3cccnc23)cc1 | 7.02 µM
97 | C[n+]1c2cc(N)ccc2cc2ccc(N)cc21 | 0.0327 µM
98 | CC1(C)C=Cc2c(ccc3c2OC[C@@H](c2ccc(O)cc2O)C3)O1 | 17.8 µM
99 | CC(=O)C1=C(c2cccc([N+](=O)[O-])c2)N(C(C)=O)n2c(C)nnc2S1 | 0.836 µM
100 | Cc1ccc(NC2(c3nnnn3-c3c(C)cccc3C)CCCCC2)cc1 | 15.7 µM
101 | Cc1ccccc1C(=O)NNC(=S)NC(=O)c1ccc(Cl)cc1Cl | 41.1 µM
102 | O=C(NCCC1=CCCCC1)c1c(O)nc2sccn2c1=O | 17 µM
103 | NC(=Nc1nc(-c2ccccn2)cc2ccccc12)c1ccccn1 | 0.0527 µM
104 | Oc1cccc2ccc(Nc3ccccn3)nc12 | 0.182 µM
105 | COc1cnc(-c2ccccn2)nc1N(C)c1ccccc1 | 0.962 µM
106 | COc1ccc(/C=N/Nc2cc(C)nc(-n3nc(C)cc3C)n2)cc1 | 1.06 µM
107 | Cn1ccc(=Nc2ccc(NC(=O)c3ccc(N=c4ccn(C)c5ccc([N+](=O)[O-])cc45)cc3)cc2)cc1 | 0.0417 µM
108 | CN(c1ccccc1)c1nc(N2CCCC2)nc(-n2ccnc2)n1 | 9.8 µM
109 | CC(C)N1CCN(c2ccc(OC[C@H]3CO[C@](Cn4cncn4)(c4ccc(Cl)cc4Cl)O3)cc2)CC1 | 5.3 µM
110 | COc1cccc(/C=N/Nc2ncnc(Cl)c2N)c1O | 0.896 µM
111 | O/N=C(\c1ccc(Cl)cc1)c1cc2ccccc2o1 | 8.56 µM
112 | CN(C)c1nc(SCc2ccc(Cl)cc2)nc2c1CCCC2 | 40.2 µM
113 | CC(C)C(=O)NC(c1cccc([N+](=O)[O-])c1)c1ccc2cccnc2c1O (stereo not given) | 1.01 µM
114 | c1ccc(-c2ccc(SCc3cccnc3)nn2)nc1 | 33.1 µM
115 | CC[n+]1c(/C=C/C=C/c2ccc(N(C)C)cc2)sc2ccccc21 | 6.28 µM
